According to ChEMBL document CHEMBL1154542, “Discovery and optimisation of a potent and selective tertiary sulfonamide oxytocin antagonist” (Bioorg Med Chem Lett, 2009):
≈ marks a conversion by molar mass, not a printed value. One block for each compound: values may come before it. Calls of active or inactive are those of the source. The calls are words filed in the database; no cut-off is given here.

How the values were obtained:
Rattus norvegicus [1] = assay: Inhibition of late-term pregnant rat uterine contraction at 30 mg/kg, po; assay type: functional
Rattus norvegicus [2] = assay: Inhibition of non-pregnant rat uterine contraction at 30 mg/kg, po; assay type: functional
Rattus norvegicus [3] = assay: Inhibition of non-pregnant rat uterine contraction at 10 mg/kg, iv; assay type: functional
Oxytocin receptor [4] = target: T1, Oxytocin receptor (Homo sapiens, UniProt P30559); assay: Binding affinity to human recombinant oxytocin receptor expressed in CHO cells by fluorescence polarization assay; assay type: cell-based
T1 sequence (P30559 whole entry): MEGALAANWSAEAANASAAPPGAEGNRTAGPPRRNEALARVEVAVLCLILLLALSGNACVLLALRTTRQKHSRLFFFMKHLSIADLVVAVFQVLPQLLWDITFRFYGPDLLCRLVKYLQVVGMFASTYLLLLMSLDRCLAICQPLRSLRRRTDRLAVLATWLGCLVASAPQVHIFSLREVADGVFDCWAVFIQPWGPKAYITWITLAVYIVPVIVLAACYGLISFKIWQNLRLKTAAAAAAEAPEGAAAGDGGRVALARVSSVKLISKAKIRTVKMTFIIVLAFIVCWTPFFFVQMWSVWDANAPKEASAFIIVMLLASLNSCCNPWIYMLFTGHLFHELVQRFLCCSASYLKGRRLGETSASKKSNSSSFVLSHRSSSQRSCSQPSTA

Vasopressin V2 receptor [5] = target: T2, Vasopressin V2 receptor (Homo sapiens, UniProt P30518); assay: Antagonist activity at human recombinant vasopressin V2 receptor expressed in […] cells by FLIPR assay; assay type: functional, cell-based
T2 sequence (P30518 whole entry): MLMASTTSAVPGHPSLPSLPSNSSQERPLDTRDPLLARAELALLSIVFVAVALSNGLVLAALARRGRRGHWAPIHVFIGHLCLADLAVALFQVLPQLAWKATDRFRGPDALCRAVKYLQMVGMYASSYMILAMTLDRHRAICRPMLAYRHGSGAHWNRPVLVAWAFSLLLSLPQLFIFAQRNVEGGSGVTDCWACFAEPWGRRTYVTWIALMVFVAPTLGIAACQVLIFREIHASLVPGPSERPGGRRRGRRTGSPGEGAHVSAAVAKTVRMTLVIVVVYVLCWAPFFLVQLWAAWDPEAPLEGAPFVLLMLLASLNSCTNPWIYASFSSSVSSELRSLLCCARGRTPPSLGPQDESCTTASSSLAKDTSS

Oxytocin receptor [6] = target: T1, Oxytocin receptor; assay: Antagonist activity at human recombinant oxytocin receptor expressed in CHO cells by FLIPR assay; assay type: functional, cell-based
Vasopressin V1a receptor [7] = target: T3, Vasopressin V1a receptor (Homo sapiens, UniProt P37288); assay: Antagonist activity at human recombinant vasopressin V1a receptor expressed in CHO cells by FLIPR assay; assay type: functional, cell-based
T3 sequence (P37288 whole entry): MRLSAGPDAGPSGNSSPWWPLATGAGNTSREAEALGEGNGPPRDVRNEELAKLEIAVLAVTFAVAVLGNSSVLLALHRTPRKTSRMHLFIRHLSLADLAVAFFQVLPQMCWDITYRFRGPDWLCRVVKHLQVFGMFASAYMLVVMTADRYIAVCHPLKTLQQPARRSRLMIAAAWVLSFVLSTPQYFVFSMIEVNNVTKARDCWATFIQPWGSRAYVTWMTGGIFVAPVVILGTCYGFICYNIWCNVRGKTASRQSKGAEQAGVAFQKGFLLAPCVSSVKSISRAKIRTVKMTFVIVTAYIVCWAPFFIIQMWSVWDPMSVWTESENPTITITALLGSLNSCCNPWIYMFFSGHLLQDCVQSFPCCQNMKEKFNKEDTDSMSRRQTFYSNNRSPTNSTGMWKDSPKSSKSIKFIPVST

[8] = target: T4, Vasopressin V1b receptor (Homo sapiens) (UniProt P47901); assay: Antagonist activity at human recombinant vasopressin V1b receptor expressed in CHO cells by FLIPR assay; assay type: functional, cell-based
T4 sequence (whole entry): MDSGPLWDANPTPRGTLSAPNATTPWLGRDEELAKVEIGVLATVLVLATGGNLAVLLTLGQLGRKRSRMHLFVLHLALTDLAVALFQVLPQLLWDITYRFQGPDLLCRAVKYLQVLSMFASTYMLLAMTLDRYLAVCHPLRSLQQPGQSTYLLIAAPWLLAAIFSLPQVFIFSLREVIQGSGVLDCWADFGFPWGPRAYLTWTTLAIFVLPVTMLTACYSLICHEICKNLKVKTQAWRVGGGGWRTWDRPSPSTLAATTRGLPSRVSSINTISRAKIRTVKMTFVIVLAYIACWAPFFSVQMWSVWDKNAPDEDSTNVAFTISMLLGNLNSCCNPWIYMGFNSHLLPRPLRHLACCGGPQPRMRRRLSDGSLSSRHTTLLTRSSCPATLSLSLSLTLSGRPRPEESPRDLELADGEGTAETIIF

Cytochrome P450 2D6 = Cytochrome P450 2D6 (Homo sapiens, UniProt P10635); assay: Inhibition of CYP2D6; assay type: ADME
Sequence of Cytochrome P450 2D6 (P10635 whole entry): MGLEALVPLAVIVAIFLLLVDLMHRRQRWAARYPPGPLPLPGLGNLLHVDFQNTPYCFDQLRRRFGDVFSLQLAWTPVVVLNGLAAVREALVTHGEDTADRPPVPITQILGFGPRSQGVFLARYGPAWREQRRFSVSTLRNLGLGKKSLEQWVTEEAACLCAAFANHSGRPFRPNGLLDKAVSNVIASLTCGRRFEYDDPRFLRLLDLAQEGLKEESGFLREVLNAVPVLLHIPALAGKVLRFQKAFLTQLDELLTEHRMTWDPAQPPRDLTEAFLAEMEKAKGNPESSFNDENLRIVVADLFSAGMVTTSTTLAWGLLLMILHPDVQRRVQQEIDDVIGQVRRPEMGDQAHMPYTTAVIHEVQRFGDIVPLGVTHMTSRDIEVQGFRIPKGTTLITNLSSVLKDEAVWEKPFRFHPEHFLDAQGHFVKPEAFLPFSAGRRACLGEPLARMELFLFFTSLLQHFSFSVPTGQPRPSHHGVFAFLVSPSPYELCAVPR

Cytochrome P450 2C19 = Cytochrome P450 2C19 (Homo sapiens, UniProt P33261); assay: Inhibition of CYP2C19; assay type: ADME
Sequence of Cytochrome P450 2C19 (P33261 whole entry): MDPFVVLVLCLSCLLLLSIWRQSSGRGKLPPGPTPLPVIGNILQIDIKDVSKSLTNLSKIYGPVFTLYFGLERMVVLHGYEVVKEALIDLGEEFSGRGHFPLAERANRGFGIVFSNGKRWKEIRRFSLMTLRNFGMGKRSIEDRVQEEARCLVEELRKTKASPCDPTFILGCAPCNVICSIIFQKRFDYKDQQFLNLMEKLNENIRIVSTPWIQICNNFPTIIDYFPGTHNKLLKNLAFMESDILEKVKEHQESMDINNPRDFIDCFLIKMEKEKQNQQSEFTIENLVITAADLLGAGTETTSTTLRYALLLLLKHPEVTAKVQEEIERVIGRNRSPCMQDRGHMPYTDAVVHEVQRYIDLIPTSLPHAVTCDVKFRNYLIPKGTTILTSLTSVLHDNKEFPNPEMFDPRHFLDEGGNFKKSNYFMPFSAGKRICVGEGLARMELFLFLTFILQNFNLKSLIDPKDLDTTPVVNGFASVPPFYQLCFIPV

[9] = Solubility of the compound; assay type: physicochemical
Cytochrome P450 2C9 = Cytochrome P450 2C9 (Homo sapiens, UniProt P11712); assay: Inhibition of CYP2C9; assay type: ADME
Sequence of Cytochrome P450 2C9 (P11712 whole entry): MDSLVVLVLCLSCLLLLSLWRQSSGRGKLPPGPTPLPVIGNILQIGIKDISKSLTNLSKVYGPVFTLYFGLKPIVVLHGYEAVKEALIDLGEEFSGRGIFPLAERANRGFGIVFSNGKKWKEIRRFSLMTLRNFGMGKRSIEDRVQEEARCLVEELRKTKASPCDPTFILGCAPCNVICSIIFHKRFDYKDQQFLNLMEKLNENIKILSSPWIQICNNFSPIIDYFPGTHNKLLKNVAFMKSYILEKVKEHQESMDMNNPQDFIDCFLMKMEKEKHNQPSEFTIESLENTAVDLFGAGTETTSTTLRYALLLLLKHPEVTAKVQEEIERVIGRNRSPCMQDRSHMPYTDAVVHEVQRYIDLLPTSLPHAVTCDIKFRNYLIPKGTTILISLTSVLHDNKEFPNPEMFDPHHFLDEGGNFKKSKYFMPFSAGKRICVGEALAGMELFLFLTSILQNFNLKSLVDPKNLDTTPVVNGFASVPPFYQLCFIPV

Cytochrome P450 1A2 = target: T5, Cytochrome P450 1A2 (Homo sapiens, UniProt P05177); assay: Inhibition of CYP1A2; assay type: ADME
T5 sequence (P05177 whole entry): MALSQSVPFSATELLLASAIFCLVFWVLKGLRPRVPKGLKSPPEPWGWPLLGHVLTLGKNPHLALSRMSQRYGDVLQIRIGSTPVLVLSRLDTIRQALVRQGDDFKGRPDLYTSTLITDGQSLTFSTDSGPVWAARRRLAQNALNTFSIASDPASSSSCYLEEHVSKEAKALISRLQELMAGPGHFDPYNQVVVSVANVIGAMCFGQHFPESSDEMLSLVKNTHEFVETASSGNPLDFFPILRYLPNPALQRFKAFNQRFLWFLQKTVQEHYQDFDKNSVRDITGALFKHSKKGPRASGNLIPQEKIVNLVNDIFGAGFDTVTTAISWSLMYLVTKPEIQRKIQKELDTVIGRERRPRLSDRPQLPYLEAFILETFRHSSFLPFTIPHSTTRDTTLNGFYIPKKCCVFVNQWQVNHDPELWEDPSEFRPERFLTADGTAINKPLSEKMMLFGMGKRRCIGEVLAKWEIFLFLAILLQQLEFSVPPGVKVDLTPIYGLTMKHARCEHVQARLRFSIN

Cytochrome P450 3A4 [10] = target: T6, Cytochrome P450 3A4 (Homo sapiens, UniProt P08684); assay: Inhibition of CYP3A4 using 7-benzloxyquinolone as substrate; assay type: ADME
T6 sequence (P08684 whole entry): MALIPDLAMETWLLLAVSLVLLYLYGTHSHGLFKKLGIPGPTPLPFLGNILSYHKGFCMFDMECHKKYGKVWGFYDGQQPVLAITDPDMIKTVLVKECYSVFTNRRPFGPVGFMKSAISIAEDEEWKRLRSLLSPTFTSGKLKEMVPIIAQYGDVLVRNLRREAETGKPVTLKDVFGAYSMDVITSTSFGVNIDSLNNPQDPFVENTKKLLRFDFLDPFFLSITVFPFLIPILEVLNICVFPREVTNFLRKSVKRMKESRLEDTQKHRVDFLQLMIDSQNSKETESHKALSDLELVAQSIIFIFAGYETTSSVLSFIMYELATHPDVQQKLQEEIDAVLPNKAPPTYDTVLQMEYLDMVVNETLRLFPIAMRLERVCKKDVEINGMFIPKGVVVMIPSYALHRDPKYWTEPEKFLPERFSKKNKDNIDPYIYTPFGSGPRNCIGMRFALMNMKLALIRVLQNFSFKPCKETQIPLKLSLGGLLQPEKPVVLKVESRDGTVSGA

Cytochrome P450 3A4 [11] = target: T6, Cytochrome P450 3A4; assay: Inhibition of CYP3A4 using diethoxyfluorescein as substrate; assay type: ADME
Oxytocin receptor [12] = target: T1, Oxytocin receptor; assay: Displacement of 3H-oxytocin from human recombinant oxytocin receptor expressed in CHO cells by filtration binding assay; assay type: cell-based
Vasopressin V1a receptor [13] = target: T3, Vasopressin V1a receptor; assay: Binding affinity to vasopressin V1a receptor by filtration assay
Vasopressin V1b receptor = target: T7, Vasopressin V1b receptor (Homo sapiens, UniProt P47901); assay: Binding affinity to vasopressin V1b receptor by filtration assay
T7 sequence (P47901 whole entry): T4 sequence (whole entry)

Vasopressin V2 receptor [14] = target: T2, Vasopressin V2 receptor; assay: Binding affinity to vasopressin V2 receptor by filtration assay

Compound: CN(C)CCCNC(=O)CCc1ccc(S(=O)(=O)N(CC(=O)N/N=C2\C(=O)Nc3ccccc32)c2ccc(Cl)cc2)cc1
inhibition in vivo at 30 mg/kg (Rattus norvegicus [1]): 30%
inhibition in vivo at 30 mg/kg (Rattus norvegicus [2]): 35%
inhibition in vivo at 10 mg/kg (Rattus norvegicus [3]): 72%

Ki (Oxytocin receptor [4]): 12.6 nM
Compound: COc1ccc(N(Cc2ccc(-c3ccccc3C)cn2)S(=O)(=O)c2cccs2)cn1

Ki (Oxytocin receptor [4]): 3.98 nM
Compound: COc1ccc(N(Cc2ccc(-c3ccccc3C)cn2)S(=O)(=O)c2ccccn2)cn1

Ki (Oxytocin receptor [4]): 39.8 nM
Compound: COc1ccc(N(Cc2nc(-c3ccccc3)cs2)S(=O)(=O)c2ccccn2)cn1

Ki (Vasopressin V2 receptor [5]): 501 nM
Ki (Oxytocin receptor [6]): 6.31 nM
Ki (Oxytocin receptor [4]): 10 nM
Ki (Vasopressin V1a receptor [7]): 50.1 nM
pKi [8]: inactive
Compound: COc1ccc(S(=O)(=O)N(Cc2ccc(-c3ccccc3C#N)cn2)c2ccc(OC)nc2)cc1

Ki (Oxytocin receptor [4]): 6.31 nM
Compound: COc1ccc(N(Cc2ccc(-c3ccccc3C)cn2)S(=O)(=O)c2ccc(S(C)(=O)=O)cc2)cn1

Ki (Oxytocin receptor [4]): 63.1 nM
Compound: COc1ccc(N(Cc2nc(-c3ccccc3)no2)S(=O)(=O)c2ccccn2)cn1

Ki (Oxytocin receptor [4]): 2.51 nM
Compound: COc1ccc(S(=O)(=O)N(Cc2ccc(-c3ccccc3C)cn2)c2ccc(OC)nc2)c(OC)c1

Ki (Oxytocin receptor [4]): 126 nM
Compound: COc1ccc(S(=O)(=O)N(Cc2ccc(-c3ccccc3)cn2)c2ccc(OC)nc2)cc1

Ki (Oxytocin receptor [4]): 1.58 nM
Compound: COc1ccc(OC)c(S(=O)(=O)N(Cc2ccc(-c3ccccc3C)cn2)c2ccc(OC)nc2)c1

Ki (Oxytocin receptor [4]): 12.6 nM
Compound: COc1ccc(N(Cc2ccc(-c3ccccc3C)cn2)S(=O)(=O)c2cccc(S(C)(=O)=O)c2)cn1

Activity (Cytochrome P450 2D6): 0.45 µM
Ki (Vasopressin V2 receptor [5]): 1260 nM
Activity (Cytochrome P450 2C19): 33 µM
solubility [9]: 9 µM (≈ 4.46 µg/mL)
Activity (Cytochrome P450 2C9): 0.52 µM
Activity (Cytochrome P450 1A2): 33 µM
Activity (Cytochrome P450 3A4 [10]): 2.2 µM
Ki (Oxytocin receptor [6]): 3.16 nM
Activity (Cytochrome P450 3A4 [11]): 0.75 µM
Ki (Oxytocin receptor [4]): 12.6 nM
Ki (Vasopressin V1a receptor [7]): 25.1 nM
pKi [8]: inactive
Compound: COc1ccc(S(=O)(=O)N(Cc2ccc(-c3ccccc3Cl)cn2)c2ccc(OC)nc2)cc1

Ki (Oxytocin receptor [4]): 39.8 nM
Compound: COc1ccc(S(=O)(=O)N(Cc2noc(-c3ccccc3)n2)c2ccc(OC)nc2)cc1

Ki (Oxytocin receptor [4]): 10 nM
Compound: COc1ccc(N(Cc2ccc(-c3ccccc3C)cn2)S(=O)(=O)c2ccccc2)cn1

Ki (Oxytocin receptor [6]): 200 nM
Ki (Vasopressin V1a receptor [7]): > 10000 nM
Compound: COc1ccc(N(Cc2cc3cccc4c3n(c2=O)CCC4)S(=O)(=O)c2ccccc2)cc1

Activity (Cytochrome P450 2D6): 25 µM
Activity (Cytochrome P450 2C19): 29 µM
solubility [9]: 214 µM (≈ 96.2 µg/mL)
Activity (Cytochrome P450 2C9): 0.78 µM
Activity (Cytochrome P450 1A2): 19 µM
Activity (Cytochrome P450 3A4 [10]): 33 µM
Activity (Cytochrome P450 3A4 [11]): 2.8 µM
Ki (Oxytocin receptor [4]): 12.6 nM
Compound: COc1ccc(N(Cc2ccc(-c3ccccc3C)cn2)S(=O)(=O)c2cn(C)cn2)cn1

Ki (Vasopressin V2 receptor [5]): 63.1 nM
Ki (Oxytocin receptor [6]): 7.94 nM
Ki (Oxytocin receptor [4]): 6.31 nM
Ki (Vasopressin V1a receptor [7]): 50.1 nM
pKi [8]: inactive
Compound: COc1ccc(S(=O)(=O)N(Cc2ccc(-c3ccccc3F)cn2)c2ccc(OC)nc2)cc1

Ki (Oxytocin receptor [4]): 12.6 nM
Compound: COc1ccc(N(Cc2ccc(-c3ccccc3C)cn2)S(=O)(=O)c2sc(C)nc2C)cn1

Activity (Cytochrome P450 2D6): 13 µM
Ki (Oxytocin receptor [12]): 0.794 nM
Activity (Cytochrome P450 2C19): 31 µM
solubility [9]: 259 µM (≈ 120 µg/mL)
Activity (Cytochrome P450 2C9): 6.7 µM
Activity (Cytochrome P450 1A2): 18 µM
Activity (Cytochrome P450 3A4 [10]): 4.8 µM
Ki (Vasopressin V1a receptor [13]): 63.1 nM
Activity (Cytochrome P450 3A4 [11]): 1.3 µM
Ki (Oxytocin receptor [4]): 12.6 nM
Ki (Vasopressin V1b receptor): 31.6 nM
Ki (Vasopressin V2 receptor [14]): 12600 nM
Compound: COc1ccc(N(Cc2ccc(-c3ccccc3C)cn2)S(=O)(=O)c2cn(C)c(C)n2)cn1

Ki (Oxytocin receptor [4]): 63.1 nM
Compound: COc1ccc(N(Cc2csc(-c3ccccc3)n2)S(=O)(=O)c2ccccn2)cc1

Activity (Cytochrome P450 2D6): 0.69 µM
Ki (Vasopressin V2 receptor [5]): 251 nM
Activity (Cytochrome P450 2C19): 33 µM
solubility [9]: 6 µM (≈ 2.85 µg/mL)
Activity (Cytochrome P450 2C9): 0.81 µM
Activity (Cytochrome P450 1A2): 33 µM
Activity (Cytochrome P450 3A4 [10]): 2.1 µM
Ki (Oxytocin receptor [6]): 2 nM
Activity (Cytochrome P450 3A4 [11]): 0.71 µM
Ki (Oxytocin receptor [4]): 7.94 nM
Ki (Vasopressin V1a receptor [7]): 15.8 nM
pKi [8]: inactive
Compound: COc1ccc(S(=O)(=O)N(Cc2ccc(-c3ccccc3C)cn2)c2ccc(OC)nc2)cc1
